According to US20090286722A1 (priority 2005, published 2009):

Tests used:
[1] = target: purified porcine dipeptidyl peptidase IV (Sus scrofa, UniProt P22411); experiment: DPP IV degradation, % intact peptide by HPLC; format: in vitro ADME; details: 37° C., pH 7.8
Experimental: (§1) HPLC peak area data were used to calculate the percentage intact peptide remaining at the various time points during the incubation.

[2] = target: dipeptidyl peptidase IV (Sus scrofa, UniProt P22411); experiment: DPP IV degradation, % intact peptide by HPLC; format: in vitro ADME, porcine; details: pig, purified porcine dipeptidyl peptidase IV (DPP IV), 37° C., pH 7.8
dipeptidyl peptidase IV, sequence (P22411 whole entry): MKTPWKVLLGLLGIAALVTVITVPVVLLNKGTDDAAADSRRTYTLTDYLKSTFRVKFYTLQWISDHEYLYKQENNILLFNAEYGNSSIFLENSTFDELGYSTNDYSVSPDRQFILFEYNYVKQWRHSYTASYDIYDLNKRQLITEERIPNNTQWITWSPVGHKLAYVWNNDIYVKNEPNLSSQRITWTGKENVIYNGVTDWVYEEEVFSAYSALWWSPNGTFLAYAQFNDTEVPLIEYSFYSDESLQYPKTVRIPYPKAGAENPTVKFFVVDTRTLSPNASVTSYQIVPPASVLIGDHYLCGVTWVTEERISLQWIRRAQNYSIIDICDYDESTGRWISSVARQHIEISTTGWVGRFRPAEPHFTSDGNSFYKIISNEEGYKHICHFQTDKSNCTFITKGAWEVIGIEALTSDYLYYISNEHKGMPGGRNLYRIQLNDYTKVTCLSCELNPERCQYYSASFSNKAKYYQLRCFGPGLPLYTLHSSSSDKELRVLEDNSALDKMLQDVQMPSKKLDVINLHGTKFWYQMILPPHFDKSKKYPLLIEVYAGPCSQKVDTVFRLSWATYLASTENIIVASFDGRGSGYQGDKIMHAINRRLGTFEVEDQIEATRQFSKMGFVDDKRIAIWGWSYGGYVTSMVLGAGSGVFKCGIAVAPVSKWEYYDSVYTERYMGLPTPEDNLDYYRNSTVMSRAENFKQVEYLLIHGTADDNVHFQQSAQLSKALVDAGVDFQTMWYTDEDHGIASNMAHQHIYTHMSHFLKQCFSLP
Experimental: as §1

[3] = system: ob/ob mice; experiment: Acute glucose lowering and insulin release, peptide given i.p. with glucose to 18 hour fasted ob/ob mice
Experimental: (§2) Obese diabetic (ob/ob) mice derived from the colony maintained at Aston University, UK (23) were used at 12-16 weeks of age. […] Drinking water and standard rodent maintenance diet (Trouw Nutrition, Cheshire, UK) were freely available.
(§3) Food intake and body weight were recorded daily from 5 days before commencement of the treatment regimes. Plasma glucose and insulin concentrations (10:00 h) were monitored at 2-4 day intervals. […] All acute tests were commenced at 10:00 h. […] Serum samples were taken for determination of glucagon concentrations. All other blood samples were collected from the cut tip of the tail vein of conscious mice into chilled fluoride/heparin coated glucose microcentrifuge tubes (Sarstedt, Nümbrecht, Germany) at the times indicated in the Figures. Blood samples were immediately centrifuged using a Beckman microcentrifuge (Beckman Instruments, Galway, Ireland) for 30 seconds at 13,000×g. The resulting plasma was then aliquoted into fresh tubes and stored at −20° C. prior to glucose and insulin determinations.

[4] = system: ob/ob mice; experiment: 24 hour plasma glucose and insulin profile after a single dose in non-fasted ob/ob mice; format: in vivo
From the text: Dose of 12.5 nmol kg^−1 was chosen to evaluate the longer-term duration of action of a single dose of native or fatty acid derivatised GIP in non-fasted ob/ob mice.

[5] = system: ob/ob mice; experiment: Glucose tolerance 4 hours after peptide administration in 18 hour fasted ob/ob mice; format: in vivo; details: 25 nmoles/kg, glucose 18 mmoles/kg
[6] = system: ob/ob mice; experiment: Once daily i.p. injection for 14 days in ob/ob mice
Experimental: as §2, §3

[7] = system: DPP IV; details: cited: O'Harte 2002; Irwin 2005; cited from earlier work
[8] = 25 nmol/kg i.p. with glucose 18 mmol/kg
[9] = after 14 daily injections, glucose 18 mmoles/kg
[10] = after 14 days, glucose 18 mmoles/kg with native GIP

purified porcine dipeptidyl peptidase IV, sequence (P22411 whole entry): as above

## CCCCCCCCCCCCCCCC(=O)NCCCC[C@H](NC(=O)[C@H](Cc1c[nH]c2ccccc12)NC(=O)[C@H](CC(=O)O)NC(=O)[C@H](CC(N)=O)NC(=O)[C@H](CCCCN)NC(=O)[C@H](CCCCN)NC(=O)CNC(=O)[C@H](CCCCN)NC(=O)[C@H](CCC(N)=O)NC(=O)[C@H](C)NC(=O)[C@H](CC(C)C)NC(=O)[C@H](CC(C)C)NC(=O)[C@H](Cc1c[nH]c2ccccc12)NC(=O)[C@H](CC(N)=O)NC(=O)[C@@H](NC(=O)[C@H](Cc1ccccc1)NC(=O)[C@H](CC(=O)O)NC(=O)[C@H](CCC(N)=O)NC(=O)[C@H](CCC(N)=O)NC(=O)[C@H](Cc1c[nH]cn1)NC(=O)[C@@H](NC(=O)[C@H](CCCCN)NC(=O)[C@H](CC(=O)O)NC(=O)[C@H](CCSC)NC(=O)[C@H](C)NC(=O)[C@@H](NC(=O)[C@H](CO)NC(=O)[C@H](Cc1ccc(O)cc1)NC(=O)[C@H](CC(=O)O)NC(=O)[C@H](CO)NC(=O)[C@@H](NC(=O)[C@H](Cc1ccccc1)NC(=O)[C@@H](NC(=O)CNC(=O)[C@H](CCC(=O)O)NC(=O)[C@H](C)NC(=O)[C@@H](N)Cc1ccc(O)cc1)[C@@H](C)O)[C@@H](C)CC)[C@@H](C)CC)[C@@H](C)CC)C(C)C)C(=O)N[C@@H](Cc1c[nH]cn1)C(=O)N[C@@H](CC(N)=O)C(=O)N[C@H](C(=O)N[C@H](C(=O)N[C@@H](CCC(N)=O)C(=O)O)[C@@H](C)O)[C@@H](C)CC [GIP(LysPAL^37)]
[1]; 0 h incubation with DPP IV (5 mU)
  % Intact peptide remaining after time (h) 0: 100%
[1]; 24 h incubation with DPP IV (5 mU)
  % Intact peptide remaining after time (h) 24: remained fully intact
[2]; 2 h incubation with DPP IV (5 mU), read-out: % Intact peptide remaining after time (h) 2
  remaining at 2 h, 2 mM: 100%
[2]; 8 h incubation with DPP IV (5 mU), read-out: % Intact peptide remaining after time (h) 8
  remaining at 8 h, 2 mM: 100%
[2]; 24 h incubation with DPP IV (5 mU), read-out: % Intact peptide remaining after time (h) 24
  remaining at 24 h, 2 mM: 100%
[3]; [8]
  glucose AUC response compared to native GIP: significant reduction
  plasma glucose concentrations and AUC (0-60 min) compared to glucose alone: significantly reduced
[3]; 25 nmol/kg i.p. with glucose, insulin AUC 0-60 min
  overall enhancement of insulin release over native GIP: 2.7 fold
[4]; single 12.5 nmol/kg i.p.
  effect on plasma glucose over 24 hours: significant (P<0.01) and sustained decrease
  glucose concentrations at 24 hours and AUC values versus native GIP or saline treated controls: significantly less
  insulin concentrations from 4 to 24 hours versus controls: not significantly different
[4]; single injection
  time for which decline of plasma glucose was sustained after single injection: at least 24 hours
[5]
  insulinotropic properties 4 hours after administration: less evident
[5]; versus saline
  reduction of glycaemic excursion following i.p. glucose 4 hours after administration: 18%
[6]; 25 nmoles/kg/day, 14 days
  effect on body weight: no effect
  effect on food intake: no effect
  non-fasting plasma insulin concentrations (tendency towards elevated): did not achieve statistical significance
[6]; 25 nmoles/kg/day, day 14
  non-fasting plasma glucose concentrations at 14 days versus control: significantly (p<0.05) lowered
  plasma glucagon on day 14 versus control: no differences observed
[6]; after 14 daily injections
  islet area compared with saline-treated ob/ob mice: significant increases
  number of pancreatic islets compared with saline-treated ob/ob mice: significant increases
  pancreatic insulin content compared with saline-treated controls: did not affect
  pancreatic weight compared with saline-treated controls: did not affect
[6]; [9]
  insulinotropic response following i.p. glucose versus control: augmented
  overall glycaemic excursion after i.p. glucose versus control: significantly reduced
[6]; after 14 days, 18 hours fasted
  plasma glucose response to 15 minutes feeding, at 15 minutes: significantly lowered
  plasma insulin response to 15 minutes feeding, at 15 minutes: significantly increased
[6]; after 14 days, 18 hours fasted, AUC 0-105 min
  overall insulinotropic response to feeding: overall increased insulinotropic response
[6]; after 14 days, insulin 50 U/kg i.p.
  hypoglycemic action of insulin (insulin sensitivity), AUC and post injection values versus controls: significantly augmented
[6]; [10]
  glycaemic excursions after glucose with native GIP compared to control animals: significantly decreased
  overall glucose-dependent insulinotropic response to native GIP: significantly augmented
[6]; long-term administration
  adverse effects following long-term administration: No adverse effects were observed
[7]
  resistance to DPP IV degradation: increased resistance to DPP IV degradation
